In patent US12037346B2, “Amino-substituted heteroaryls for treating cancers with EGFR mutations” (Nuvalent, Inc., priority 2021, dated 2024):

Assays:
Type in all cases: cell-based
[1] = target: T1, HER2-A775_G776insV-G776C (NCI-H1781 cells) (Homo sapiens, UniProt P04626, G776C/INS775V); experiment: Cellular phosphorylation assay, pHER2 (phospho-ErbB2 Tyr1221/1222 AlphaLISA) in NCI-H1781; conditions: compound incubated for 5 hours
T1 construct: NCI-H1781 is a HER2 exon20 insertion cell line bearing HER2-A775_G776insV-G776C; endogenous in cells; host or cells: NCI-H1781
T1 sequence (P04626 with tags, fused parts or gaps INS775V/G776C): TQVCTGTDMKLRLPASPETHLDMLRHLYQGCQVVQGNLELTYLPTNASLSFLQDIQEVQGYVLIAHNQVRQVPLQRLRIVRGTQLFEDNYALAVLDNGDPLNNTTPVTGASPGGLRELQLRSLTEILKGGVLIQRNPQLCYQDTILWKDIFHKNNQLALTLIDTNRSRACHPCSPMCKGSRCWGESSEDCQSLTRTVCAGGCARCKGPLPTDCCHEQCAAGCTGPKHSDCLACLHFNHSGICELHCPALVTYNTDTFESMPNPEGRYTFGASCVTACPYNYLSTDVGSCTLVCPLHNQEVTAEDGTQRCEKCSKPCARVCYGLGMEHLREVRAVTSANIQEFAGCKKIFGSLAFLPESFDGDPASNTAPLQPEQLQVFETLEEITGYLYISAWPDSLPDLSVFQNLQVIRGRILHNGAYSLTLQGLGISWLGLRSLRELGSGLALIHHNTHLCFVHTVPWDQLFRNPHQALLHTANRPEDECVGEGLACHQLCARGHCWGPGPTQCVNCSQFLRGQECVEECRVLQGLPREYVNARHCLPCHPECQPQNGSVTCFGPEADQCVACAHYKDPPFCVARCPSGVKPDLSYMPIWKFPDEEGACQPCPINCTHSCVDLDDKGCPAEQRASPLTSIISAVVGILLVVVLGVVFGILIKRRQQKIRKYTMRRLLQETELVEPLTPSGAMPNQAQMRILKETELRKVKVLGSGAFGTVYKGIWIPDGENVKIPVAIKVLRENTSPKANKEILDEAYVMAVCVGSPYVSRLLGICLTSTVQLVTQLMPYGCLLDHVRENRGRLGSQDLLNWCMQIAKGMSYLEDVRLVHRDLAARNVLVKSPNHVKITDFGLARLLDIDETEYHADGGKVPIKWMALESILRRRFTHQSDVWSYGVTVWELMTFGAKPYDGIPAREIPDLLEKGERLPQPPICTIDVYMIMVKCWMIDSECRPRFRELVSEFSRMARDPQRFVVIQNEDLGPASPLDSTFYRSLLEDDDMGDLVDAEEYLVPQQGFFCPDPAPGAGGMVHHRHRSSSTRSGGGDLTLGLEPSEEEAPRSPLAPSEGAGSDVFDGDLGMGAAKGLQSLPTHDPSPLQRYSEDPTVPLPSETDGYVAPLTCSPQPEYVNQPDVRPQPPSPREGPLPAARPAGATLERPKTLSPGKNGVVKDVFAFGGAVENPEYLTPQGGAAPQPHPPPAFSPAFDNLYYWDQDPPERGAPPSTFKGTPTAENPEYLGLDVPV
Experimental: (§1) Besides Ba/F3s, two commercially available cell lines were also used. NCI-H1781 is a HER2 exon20 insertion cell line bearing HER2-A775_G776insV-G776C. A431 bears amplification of the wild-type EGFR gene.
Ba/F3 cells were plated at 50,000 cells/well (40 μL), or NCI-H1781 cells or A431 cells were plated at 12,500 cells/well (40 μL), in a 384-well plate for 1 day. Test compounds (40 nL) were then added in a 3-fold dilution series using the TECAN EV0200 liquid handler and incubated for 5 hours. Only for pEGFR analysis in A431, the cells were briefly stimulated with EGF (30 ng/mL) for 15 minutes. Media were removed using Apricot Designs. Phosphoproteins were analyzed using the phospho-EGFR Tyr1068 AlphaLISA kit (“pEGFR”; PerkinElmer #ALSU-PEGFR-B10K;) phospho-ERK Thr202/Tyr204 AlphaLISA kit (“pERK”; PerkinElmer #ALSU-PERK-A10K) or the phospho-ErbB2 Tyr1221/1222 AlphaLISA kit (“pHER2”; PerkinElmer #ALSU-PEB2-A10K;) according to the manufacturer's instructions. Briefly, cells were lysed with lysis buffer (10 μL) containing protease-inhibitor and phosphatase-inhibitor cocktails. The lysates were transferred into a new optical plate, incubated with the acceptor mix (5 μL) for 1.5-2 hours at room temperature in darkness, and then mixed with the donor mix (5 μL) overnight in darkness. Fluorescence was measured on a plate reader using the appropriate AlphaLISA settings. Half-maximal inhibitory concentration (IC50) was calculated from percent inhibition and inhibitor concentration using four-parameter logistic regression.
HER2 is phosphorylated when activated. Therefore, phospho-HER2 indicates HER2 activity in the cells.

[2] = target: Ba/F3 HER2-YVMA cells (HER2-A775_G776insYVMA) (Homo sapiens, UniProt P04626, DUP772-775, cells depend on it); experiment: Cell proliferation assay (CellTiter-Glo), Ba/F3 HER2-YVMA; conditions: read-out: Ba/F3 HER2-YVMA cell proliferation IC50
Ba/F3 HER2-YVMA cells (HER2-A775_G776insYVMA), sequence (P04626 with tags, fused parts or gaps DUP772-775): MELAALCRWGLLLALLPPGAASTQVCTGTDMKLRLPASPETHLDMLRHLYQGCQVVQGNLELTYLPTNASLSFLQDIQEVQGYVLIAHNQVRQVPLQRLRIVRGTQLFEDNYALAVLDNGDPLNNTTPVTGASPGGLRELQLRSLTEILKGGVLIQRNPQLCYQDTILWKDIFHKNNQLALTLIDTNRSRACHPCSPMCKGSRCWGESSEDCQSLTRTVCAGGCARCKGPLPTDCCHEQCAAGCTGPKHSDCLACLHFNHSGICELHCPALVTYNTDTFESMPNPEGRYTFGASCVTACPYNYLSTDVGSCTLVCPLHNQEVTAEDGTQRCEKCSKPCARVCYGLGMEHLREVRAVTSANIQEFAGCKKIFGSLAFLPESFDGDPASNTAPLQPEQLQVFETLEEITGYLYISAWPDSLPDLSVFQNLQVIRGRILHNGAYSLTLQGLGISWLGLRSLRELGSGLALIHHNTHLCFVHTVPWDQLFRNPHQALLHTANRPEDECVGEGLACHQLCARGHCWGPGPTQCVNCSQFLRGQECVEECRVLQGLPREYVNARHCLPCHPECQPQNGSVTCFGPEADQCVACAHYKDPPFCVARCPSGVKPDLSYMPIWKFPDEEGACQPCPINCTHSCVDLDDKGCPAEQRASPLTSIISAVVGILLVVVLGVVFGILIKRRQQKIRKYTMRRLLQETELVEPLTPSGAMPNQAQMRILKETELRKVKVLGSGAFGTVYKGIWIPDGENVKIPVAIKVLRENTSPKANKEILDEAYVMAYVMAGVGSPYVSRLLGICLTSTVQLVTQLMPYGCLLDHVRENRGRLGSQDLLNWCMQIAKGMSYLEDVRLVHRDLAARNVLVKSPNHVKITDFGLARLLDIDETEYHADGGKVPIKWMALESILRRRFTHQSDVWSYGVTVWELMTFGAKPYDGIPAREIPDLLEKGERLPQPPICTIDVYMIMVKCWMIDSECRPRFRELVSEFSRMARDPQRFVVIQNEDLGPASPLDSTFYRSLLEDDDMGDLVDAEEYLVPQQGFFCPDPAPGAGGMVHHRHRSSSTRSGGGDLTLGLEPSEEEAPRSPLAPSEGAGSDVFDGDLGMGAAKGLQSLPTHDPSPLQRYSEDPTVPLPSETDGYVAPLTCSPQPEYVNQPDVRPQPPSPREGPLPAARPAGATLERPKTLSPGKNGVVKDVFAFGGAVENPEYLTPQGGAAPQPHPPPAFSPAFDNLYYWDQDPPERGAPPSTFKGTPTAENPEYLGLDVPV
Experimental: The gene encoding HER2-A775_G776insYVMA (“HER2-YVMA”) was synthesized at GeneRay, cloned into the retroviral construct pMSCV-puro (Biovector), and packaged into retroviral particles. The virus was used to infect Ba/F3 cells (RIKEN) at multiplicity of infection=1 or 10 for 1 day. Infected cells were rescued in media (RPMI-1640 with 10% fetal bovine serum and 1% streptomycin and penicillin) supplemented with mouse IL-3 (10 ng/mL) for 2 days, and stable cell lines were selected by IL-3 withdrawal and puromycin (0.8 μg/mL) for 7 days. Monoclones were selected by single-cell dilution in IL-3-free medium containing puromycin ([…]). Transformation of desired genes was confirmed by Sanger sequencing and western blot using the following antibody: HER2 (CST #2242).
(§2) Ba/F3 cells were plated at 1,000 cells/well (40 μL), or NCI-H1781 or A431 cells were plated at 2,000 cells/well (40 μL), in a 384-well plate for 1 day. Test compounds (40 nL) were then added in a 3-fold dilution series using the TECAN EV0200 liquid handler and incubated for 48 hours (“2 days”), 72 hours (“3 days”), or 48 hours followed by renewal of compound solutions and further incubation for 72 hours (“2 days/3 days”). The 72-hour assay was necessary for NCI-H1781 cells, which are slow-growing, and the resupply of fresh compounds on day 3 obviated the potential confounding effects arising from compound degradation in cell media over 72 hours. Plates were equilibrated at room temperature for 15 minutes followed by addition of 40 μL CellTiter-Glo reagent (Promega). Luminescence was measured on a plate reader. Half-maximal inhibitory concentration (IC50) was calculated from percent inhibition and inhibitor concentration using four-parameter logistic regression. […] In these cases, the regression curve was drawn only for the first inflexion to accurately measure on-target growth inhibitory effect.
(§3) Ba/F3, NCI-H1781, and A431 proliferation is driven by the oncogenes in the same way that cancer cell proliferation in humans is driven by the expression of equivalent oncogenes.

[3] = target: T2, wild-type EGFR (A431 cells) (Homo sapiens, UniProt P00533); experiment: Cellular phosphorylation assay, pEGFR (phospho-EGFR Tyr1068 AlphaLISA) in A431; conditions: compound incubated for 5 hours, EGF (30 ng/mL) for 15 minutes
T2 construct: A431 bears amplification of the wild-type EGFR gene; endogenous in cells; host or cells: A431
T2 sequence (P00533 25-1210): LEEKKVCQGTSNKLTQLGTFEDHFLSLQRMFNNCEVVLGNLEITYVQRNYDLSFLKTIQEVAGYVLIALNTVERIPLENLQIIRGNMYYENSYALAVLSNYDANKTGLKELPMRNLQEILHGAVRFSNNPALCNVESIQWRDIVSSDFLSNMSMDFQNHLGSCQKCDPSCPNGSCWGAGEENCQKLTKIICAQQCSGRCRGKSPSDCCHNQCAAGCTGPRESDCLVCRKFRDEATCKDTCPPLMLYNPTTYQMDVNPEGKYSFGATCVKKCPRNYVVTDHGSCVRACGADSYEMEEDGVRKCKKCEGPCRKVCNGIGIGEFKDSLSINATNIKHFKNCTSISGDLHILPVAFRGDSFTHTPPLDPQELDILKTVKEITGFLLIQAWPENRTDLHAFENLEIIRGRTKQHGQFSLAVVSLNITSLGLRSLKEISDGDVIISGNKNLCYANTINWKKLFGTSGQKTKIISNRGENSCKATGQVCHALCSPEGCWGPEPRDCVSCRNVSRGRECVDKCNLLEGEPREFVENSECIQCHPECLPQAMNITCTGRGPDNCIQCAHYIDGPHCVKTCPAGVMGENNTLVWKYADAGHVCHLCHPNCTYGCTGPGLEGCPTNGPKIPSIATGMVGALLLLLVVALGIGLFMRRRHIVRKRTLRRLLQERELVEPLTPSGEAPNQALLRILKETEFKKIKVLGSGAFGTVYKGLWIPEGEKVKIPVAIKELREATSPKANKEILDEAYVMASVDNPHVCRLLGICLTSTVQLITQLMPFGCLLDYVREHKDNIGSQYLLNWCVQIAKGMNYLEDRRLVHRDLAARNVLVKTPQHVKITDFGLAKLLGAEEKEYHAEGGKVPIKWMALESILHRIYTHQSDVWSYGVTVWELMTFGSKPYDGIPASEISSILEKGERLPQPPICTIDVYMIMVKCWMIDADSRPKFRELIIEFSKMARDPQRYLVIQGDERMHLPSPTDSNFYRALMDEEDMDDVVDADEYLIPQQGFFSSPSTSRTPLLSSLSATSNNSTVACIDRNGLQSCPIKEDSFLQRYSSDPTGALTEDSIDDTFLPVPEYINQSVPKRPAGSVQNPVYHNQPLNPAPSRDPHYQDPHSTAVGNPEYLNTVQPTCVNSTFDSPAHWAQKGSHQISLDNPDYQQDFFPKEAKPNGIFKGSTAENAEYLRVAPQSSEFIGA
Experimental: as §1
(§4) Ba/F3 cells were plated at 50,000 cells/well (40 μL), or NCI-H1781 cells or A431 cells were plated at 12,500 cells/well (40 μL), in a 384-well plate for 1 day. Test compounds (40 nL) were then added in a 3-fold dilution series using the TECAN EV0200 liquid handler and incubated for 5 hours. Only for pEGFR analysis in A431, the cells were briefly stimulated with EGF (30 ng/mL) for 15 minutes. Media were removed using Apricot Designs. Phosphoproteins were analyzed using the phospho-EGFR Tyr1068 AlphaLISA kit (“pEGFR”; PerkinElmer #ALSU-PEGFR-B10K;) phospho-ERK Thr202/Tyr204 AlphaLISA kit (“pERK”; PerkinElmer #ALSU-PERK-A10K) or the phospho-ErbB2 Tyr1221/1222 AlphaLISA kit (“pHER2”; PerkinElmer #ALSU-PEB2-A10K;) according to the manufacturer's instructions. Briefly, cells were lysed with lysis buffer (10 μL) containing protease-inhibitor and phosphatase-inhibitor cocktails. The lysates were transferred into a new optical plate, incubated with the acceptor mix (5 μL) for 1.5-2 hours at room temperature in darkness, and then mixed with the donor mix (5 μL) overnight in darkness. Fluorescence was measured on a plate reader using the appropriate AlphaLISA settings. Half-maximal inhibitory concentration (IC50) was calculated from percent inhibition and inhibitor concentration using four-parameter logistic regression. […]

[4] = system: A431 cells (amplification of the wild-type EGFR gene), phospho-ERK Thr202/Tyr204; experiment: Cellular phosphorylation assay, pERK (phospho-ERK Thr202/Tyr204 AlphaLISA) in A431; conditions: Homo sapiens, A-431, compound incubated for 5 hours
Experimental: as §1, §4

[5] = system: NCI-H1781 cells (HER2-A775_G776insV-G776C); experiment: Cell proliferation assay (CellTiter-Glo), NCI-H1781; conditions: first inflexion of biphasic curve
Experimental: as §1, §2, §3

| Compound | IC50 [1] | GI50 [2] | IC50 [3] | IC50 [4] | IC50 [5] |
| --- | --- | --- | --- | --- | --- |
| C=CC(=O)N1CCC=C(c2ccc3ncnc(Nc4ccc(Oc5ccn6ncnc6c5)c(C)c4)c3n2)CC1 [Example 1, 1-(4-[4-[(3-methyl-4-[[1,2,4]triazolo[1,5-a]pyridin-7-yloxy]phenyl)amino]pyrido[3,2-d]pyrimidin-6-yl]-2,3,6,7-tetrahydroazepin-1-yl)prop-2-en-1-one] | < 100 nM | < 100 nM | 100 to 500 nM | 100 to 500 nM | < 100 nM |
| C=CC(=O)N1CCC=C(c2ncc3ncnc(Nc4ccc(Oc5ccn6ncnc6c5)c(C)c4F)c3n2)CC1 [Example 56] | < 100 nM | < 100 nM | 500 to 1000 nM | – | – |
| C=CC(=O)N1CC=C(c2ccc3ncnc(Nc4ccc(Oc5ccn6ncnc6c5)c(C)c4)c3n2)C1 [Example 21] | < 100 nM | 100 to 500 nM | ≥ 1000 nM | ≥ 1000 nM | 100 to 500 nM |
| Cc1cc(Nc2ncnc3ccc(C4=CCN(C(=O)/C=C/CN(C)C)CC4)nc23)ccc1Oc1ccn2ncnc2c1 [Example 13] | < 100 nM | < 100 nM | 100 to 500 nM | ≥ 1000 nM | < 100 nM |
| C=CC(=O)N1CCN(c2ncc3ncnc(Nc4ccc(Oc5ccn6ncnc6c5)c(C)c4F)c3n2)C[C@@H]1C [Example 49] | < 100 nM | < 100 nM | ≥ 1000 nM | ≥ 1000 nM | < 100 nM |
| C=CC(=O)N1CCC(c2ncc3ncnc(Nc4ccc(Oc5ccn6ncnc6c5)c(C(F)F)c4F)c3n2)=C[C@@H]1C [Example 60] | < 100 nM | < 100 nM | 500 to 1000 nM | ≥ 1000 nM | – |
| C=CC(=O)N1CCN(c2ncc3ncnc(Nc4cc(C)c(Oc5ccn6ncnc6c5)cc4F)c3n2)C[C@H]1C [Example 50] | < 100 nM | – | ≥ 1000 nM | – | 100 to 500 nM |
| C=CC(=O)N1CCN(c2ccc3ncnc(Nc4ncc(Oc5ccn6ncnc6c5)c(C)c4F)c3c2F)C[C@H]1C [Example 64] | < 100 nM | 100 to 500 nM | ≥ 1000 nM | ≥ 1000 nM | – |
| C=CC(=O)N1CCC(c2ncc3ncnc(Nc4ccc(Oc5ccn6ncnc6c5)c(C(F)(F)F)c4F)c3n2)=C[C@@H]1C [Example 62] | < 100 nM | < 100 nM | ≥ 1000 nM | ≥ 1000 nM | – |
| C=CC(=O)N1CCN(c2ncc3ncnc(Nc4ncc(Oc5ccn6ncnc6c5)c(C)c4F)c3n2)C[C@H]1C [Example 63] | 100 to 500 nM | 500 to 1000 nM | ≥ 1000 nM | ≥ 1000 nM | – |
| C=CC(=O)N1CCN(c2ccc3ncnc(Nc4ccc(Oc5ccn6ncnc6c5)c(C)c4)c3c2OC)CC1 [Example 20] | – | < 100 nM | ≥ 1000 nM | ≥ 1000 nM | < 100 nM |
| C=CC(=O)N1CCN(c2ccc3ncnc(Nc4ccc(Oc5ccn6ncnc6c5)c(C)c4)c3n2)C(=O)C1 [Example 8] | – | < 100 nM | ≥ 1000 nM | ≥ 1000 nM | < 100 nM |
| C=CC(=O)N1CC=C(c2ccc3ncnc(Nc4ccc(Oc5cc(OC)n6ncnc6c5)c(C)c4)c3n2)CC1 [Example 15] | – | < 100 nM | ≥ 1000 nM | ≥ 1000 nM | 100 to 500 nM |
| C=CC(=O)N1CC=C(c2ccc3ncnc(Nc4ccc(Oc5ccn6ncnc6c5)c(C)c4)c3c2OC)CC1 [Example 19] | < 100 nM | 100 to 500 nM | ≥ 1000 nM | – | – |
| C=CC(=O)N1C[C@H]2CC[C@@H]1CN2c1ncc2ncnc(Nc3ccc(Oc4ccn5ncnc5c4)c(C)c3F)c2n1 [Example 45] | – | < 100 nM | ≥ 1000 nM | ≥ 1000 nM | 100 to 500 nM |
| C=CC(=O)N1CC=C(c2ncc3ncnc(Nc4cc(C)c(Oc5ccn6ncnc6c5)cc4F)c3n2)C[C@@H]1C [Example 59] | < 100 nM | 500 to 1000 nM | ≥ 1000 nM | – | – |
| C=CC(=O)N1CCC(c2ncc3ncnc(Nc4ccc(Oc5ccn6ncnc6c5)c(C)c4F)c3n2)=C[C@H]1C [Example 55] | < 100 nM | < 100 nM | ≥ 1000 nM | 100 to 500 nM | – |
| C=CC(=O)N1CCN(c2ccc3ncnc(Nc4ccc(Oc5ccn6ncnc6c5)c(C)c4)c3n2)C[C@H]1C [Example 6] | – | < 100 nM | 100 to 500 nM | 100 to 500 nM | < 100 nM |
| C=CC(=O)N1CCN(c2ncc3ncnc(Nc4ccc(Oc5ccn6ncnc6c5)c(C(F)(F)F)c4F)c3n2)C[C@H]1C [Example 39] | – | 100 to 500 nM | ≥ 1000 nM | ≥ 1000 nM | 500 to 1000 nM |
| C=CC(=O)N1CCN(c2ncc3ncnc(Nc4cc(C)c(Oc5ccn6ncnc6c5)cc4F)c3n2)[C@@H](C)C1 [Example 35] | – | < 100 nM | ≥ 1000 nM | ≥ 1000 nM | 100 to 500 nM |
| C=CC(=O)N1CC=C(c2ccc3ncnc(Nc4ccc(Oc5cc(Cl)n6ncnc6c5)c(C)c4)c3n2)CC1 [Example 16] | – | < 100 nM | 500 to 1000 nM | 500 to 1000 nM | 100 to 500 nM |
| C=CC(=O)N1CC2(C1)CN(c1ccc3ncnc(Nc4ccc(Oc5ccn6ncnc6c5)c(C)c4)c3n1)C2 [Example 23] | < 100 nM | 500 to 1000 nM | ≥ 1000 nM | – | – |
| Cc1cc(Nc2ncnc3ccc(N4CCN(C(=O)/C=C/CN(C)C)CC4)nc23)ccc1Oc1ccn2ncnc2c1 [Example 7] | – | < 100 nM | 100 to 500 nM | 100 to 500 nM | < 100 nM |
| C=CC(=O)N1CCN(c2ncc3ncnc(Nc4cc(C)c(Oc5cc(C)n6ncnc6c5)cc4F)c3n2)C[C@H]1C [Example 51] | < 100 nM | < 100 nM | ≥ 1000 nM | ≥ 1000 nM | – |
| C=CC(=O)N1CCCN(c2ccc3ncnc(Nc4ccc(Oc5ccn6ncnc6c5)c(C)c4)c3n2)CC1 [Example 14] | < 100 nM | 100 to 500 nM | ≥ 1000 nM | ≥ 1000 nM | – |
